Literature values in publication PMC8198792, “Prediction of Anticancer Peptides with High Efficacy and Low Toxicity by Hybrid Model Based on 3D Structure of Peptides” (International Journal of Molecular Sciences, 2021).

Test system: erythrocytes
Details: Hemolytic peptides dataset HD2; label 1 = hemolytic, 0 = non-hemolytic; ref Hemolytik/SATPdb; cited from earlier work
Description: Supplement ijms-22-05630-s001.zip/Hemloytic Peptides(seguence).xlsx, sheet "HD1" | column: Activity || Supplement ijms-22-05630-s001.zip/Hemloytic Peptides(seguence).xlsx, sheet "HD2" | column: Activity || Supplement ijms-22-05630-s001.zip/Hemloytic Peptides(seguence).xlsx, sheet "HD3" | column: Activity

Row | Substance | Activity
1 | KWKSFLKTFKSlKKTVLHTlLKAISS [satpdb12638] | 1
2 | GIGKFLHSAKKFGKAFVGEIMNS [satpdb11151] | 1
3 | VKLKVyPLKVKlyP [satpdb11392] | 1
4 | GFLSILKKVLKVMAHMK [satpdb11385] | 1
5 | KWKFKKIPKFLHLAKKF [satpdb23702] | 0
6 | kWkSFLkTFkSLKkTVLHTLLkAISS [satpdb10734] | 1
7 | KWKLFKKIPKFLHLAK [satpdb17849] | 0

Same assay, conditions: cited from earlier work

Row | Substance | Activity | Activity (dataset HD1, hemolytic 1 / non-hemolytic 0)
8 | KRFKQDGGWSHWSPWSS [satpdb23837] | 0 | 0
9 | KWKSFLKTFKSAKKKVLHTALKAISS [satpdb11775] | 1 | 
10 | ALWKTLLKKVLKA [satpdb11740] | 1 | 
11 | VLSAADKGNVKAAWGKVGGHAAE [satpdb26597] | 0 | 0
12 | KWKSFLkTFKSLKKTVLHTLLKAISS [satpdb10544] | 1 | 
13 | KRLFRRLLFSMKKY [satpdb20261] | 0 | 0
14 | FLPLVLGALSGILPKILGK [satpdb12081] | 1 | 1
15 | KKKKKKAAFALWLAFLA [compound 1154] | 1 | 
16 | GFLGPLLKLGLKGVAKVIPHLIPSRQQ [satpdb16038] | 1 | 1
17 | FLPLLLAGLPKLLCLFFKKC [satpdb14955] | 1 | 1
18 | QLQGKQVSGEVVQKVLQELIQSVAKP [satpdb28356] | 0 | 0
19 | KSLVRRWRSRW [satpdb18185] | 0 | 
20 | KKLFKKILkYL [satpdb24648] | 0 | 
21 | FGVLAKVAAHVVPAIAEHF [satpdb27842] | 0 | 
22 | GLWSKIKTAGKSVAKAAAKAAVKAVTNAV [satpdb14676] | 1 | 1
23 | QKAVLDCLKAAGSSLSKAAITAI [satpdb19403] | 0 | 0
24 | LKLFKKILKFL [satpdb12214] | 1 | 
25 | WYLTLTLGYGRR [satpdb16552] | 1 | 1
26 | CKTRTSTNTDHLWIAKSKARLSET [satpdb28106] | 0 | 0
27 | KKAAHVGKHVGKAALTHYL [satpdb21325] | 0 | 
28 | KLLKKPLKLKL [satpdb17171] | 0 | 

Row | Substance | Activity | Activity (dataset HD1, hemolytic 1 / non-hemolytic 0)
29 | LKKWLKKWLKK [satpdb15781] | 0 | 
30 | HYRIKPTFRRLKWKYKGKFW [satpdb11796] | 1 | 1
31 | PKLLKFLSKWIG [satpdb11566] | 1 | 1
32 | GIHDILKYGKPS [satpdb19051] | 0 | 0
33 | KWKLKPLLKKLLKKL [satpdb10408] | 0 | 
34 | GWGSIFKHGRHAAKHIGHAAVNHYL [satpdb11681] | 1 | 
35 | KKKKKKAAFAAWAAFAA [satpdb19804] | 0 | 
36 | RFGRFLRKIRRFRPK [satpdb23150] | 0 | 0
37 | KKKKKKAAFLAWALFAA [compound 1149] | 1 | 
38 | IKIPPIVKDTLKKVAKGVLSTIAGALST [satpdb27001] | 0 | 0
39 | QTRRLTYKpRTVTYTRGR [satpdb13569] | 1 | 
40 | KWLKKWL [satpdb27612] | 0 | 
41 | KWKKLLKKPLLKKLLKKL [satpdb12329] | 0 | 
42 | KKKKKKAAFALWAAFAA [compound 1147] | 1 | 
43 | VRRFPAAAPFLRR [satpdb24534] | 0 | 0
44 | KWKLFKKIGPGKFLHSAKKF [satpdb18846] | 0 | 
45 | KWKWKW [satpdb24601] | 0 | 
46 | KKKKKKAAFAAFAAFAA [satpdb24627] | 0 | 
47 | VRRFPFFFPFLRR [satpdb22709] | 0 | 0
48 | GLFDIIKKIAESFKFSEAIKKIIDFLG [satpdb13437] | 1 | 1
49 | LVRGCWTKSYPPKPCFVR [satpdb11737] | 1 | 1

Row | Substance | Activity | Activity (dataset HD1, hemolytic 1 / non-hemolytic 0)
50 | SWSSFFKKAAHSGKHVGKSASTHYL [satpdb15741] | 0 | 
51 | ILGKLLSTAAKLLSKL [satpdb12927] | 1 | 
52 | KWKSFLRTFKSPVRTVFHTALKPISS [satpdb15241] | 1 | 1
53 | QRSVSNAATRVSRTGRSRWRDVSRNFMRR [satpdb24123] | 0 | 0
54 | KWKLFKKIPKFLHL [satpdb16155] | 0 | 
55 | CYCRIPACIAGERRYGTCIYQGRLWAFCC [satpdb11499] | 1 | 1
56 | DSHEKRHHGYKRKFHEKHHSHRGY [satpdb14665] | 0 | 0
57 | AKKVFKRLEKSFSKIQNDK [satpdb11458] | 0 | 0
58 | KWKKLLKKPLKLKL [satpdb22005] | 0 | 
59 | KKKKKKAAFALWLAFAA [compound 1148] | 1 | 
60 | KPLLKKLLKKL [satpdb28330] | 0 | 
61 | RGLRRLGRKIAHGVKKYGPTVKRIKRKA [satpdb15155] | 0 | 
62 | KWKLFKKIPHLAKKF [satpdb28955] | 0 | 
63 | KLLLKLLLK [compound 3826] | 1 | 
64 | GKLNLFLSRLEILKLFVGAL [satpdb18533] | 0 | 0
65 | KWLRRVWRWWR [satpdb13727] | 1 | 
66 | KKVVFKVKFK [satpdb13312] | 0 | 
67 | QSRVIQGLVAGETAQQICED [satpdb27946] | 0 | 0
68 | DANVENGEDAEDLTDKFIGLMG [satpdb17330] | 0 | 0
69 | GWGSFFKKAAHVGKHVGKAALT [satpdb28107] | 0 | 

Same assay, conditions: hemolytic peptides dataset HD3; 1 = hemolytic (positive set), 0 = non-hemolytic (negative set); labels taken from databases; ref Hemolytik/SATPdb; cited from earlier work

Row | Substance | Activity
70 | KWKSFLKTFKSlKKTVLHTlLKAISS [satpdb12638] | 1
71 | GIGKFLHSAKKFGKAFVGEIMNS [satpdb11151] | 1
72 | VKLKVyPLKVKlyP [satpdb11392] | 1
73 | GFLSILKKVLKVMAHMK [satpdb11385] | 1
74 | GTPCGESCVYIPCISGVIGCSCTDKVCYLN [satpdb10399] | 1
75 | KWKFKKIPKFLHLAKKF [satpdb23702] | 0
76 | kWkSFLkTFkSLKkTVLHTLLkAISS [satpdb10734] | 1
77 | KWKLFKKIPKFLHLAK [satpdb17849] | 0
78 | FSPQMLQDIIEAATAIL [satpdb19301] | 0
79 | GVPCGESCVFIPCITGVIGCSCSSNVCYLN [satpdb12922] | 1
80 | RWKIFKKIEKVGRNVRDGIIKAGPAVAVVGQAATVVKG [satpdb26767] | 0
81 | KWKSFLKTLKSPVKTVFYTALKPISS [satpdb14675] | 1

Same assay, conditions: natural hemolytic peptide dataset HD1, label collected from databases; ref Hemolytik [49], SATPdb [34]; cited from earlier work

Row | Substance | Activity (dataset HD1, hemolytic 1 / non-hemolytic 0)
82 | GTPCGESCVYIPCISGVIGCSCTDKVCYLN [satpdb10399] | 1
83 | FSPQMLQDIIEAATAIL [satpdb19301] | 0
84 | GVPCGESCVFIPCITGVIGCSCSSNVCYLN [satpdb12922] | 1
85 | RWKIFKKIEKVGRNVRDGIIKAGPAVAVVGQAATVVKG [satpdb26767] | 0
86 | KWKSFLKTLKSPVKTVFYTALKPISS [satpdb14675] | 1
